These results are taken from patent US8404677B2, “Kinase inhibitors” (Genosco, priority 2009, dated 2013).

Some results are limits rather than exact numbers.

One assay addresses truncated human LRRK2 (Homo sapiens, UniProt Q5S007). The assay is described as follows: Inhibition of enzymatic kinase activity (LANCE Ulight). In kind it is biochemical. As to the method: (§1) Inhibition of Enzymatic SYK, ZAP70, PYK2, FAK, PIM1, RET, FLT3, JAK2 and LRRK2 Kinase Activity
(§2) Compounds of the invention were initially diluted to 10 mM in 100% DMSO (CALBIOCHEM™) for storage and made into kinase buffer solution to create a compound concentration ranging from 1 uM and 10 uM. Serial dilutions of compounds of the invention were dispensed into a 96-well plate (GREINER BIOSCIENCES™) at 6 μL each. Purified full-length human SYK, ZAP70, PIM1, PYK2 and truncated human FAK, RET, FLT3, JAK2, and LRRK2 (CARNA BIOSCIENCES™) were diluted in kinase buffer and added to the compound solutions and pre-incubated for 30 minutes at room temperature (1 hour for PYK2). […] The reaction mixture was incubated for 1 hour (2 hours for PYK2). Following the incubation, the stop solution made with EDTA, water, and Lance detection buffer ([…]™) was added (12 μL each) to stop phosphorylation.
(In TR-FRET formats the signal depends on donor and acceptor labels being close together.)

Assay [1] concerns SN4741 cells overexpressing LRRK2 wild-type. The assay is described as follows: Neuroprotection from LRRK2-mediated dopaminergic cell death (H2O2, crystal violet). In kind it is cell-based, murine. The conditions noted are these: for Percent Cell Death: LRRK2 WT, 100 μM hydrogen peroxide. On the procedure:
(§3) SN4741, a murine dopaminergic cell line were cultured in DMEM containing 10 FBS at 37° C., respectively. SN4741 cells (1.5×10^4/well) were seeded in 48 well plates 1 day before transient transfection with 1 μg of the pcDNA3.1 plasmids of either vector, LRRK wildtype cDNA, LRRK G2019S cDNA, by standard CaCl2 precipitation. Two days after transfection, cells were treated with 100 μM hydrogen peroxide for 1 day and cell viability was measured by crystal violet assay. For compound treatment, the test compounds were added at 0.05 μM, 0.5 μM and 5 μM and the cells were incubated for 1 hour prior to the addition of hydrogen peroxide.
(§4) SN4741 cells were transfected with plasmids containing the LRRK2 wild-type or G2019S and incubated them for 2 days followed by addition of 100 μM of hydrogen peroxide for 24 h to sensitize them to oxidative stress. Cell survival was assessed using the crystal violet.

The test system of assay [2] is SN4741 cells overexpressing LRRK2 G2019S. The description is as above. In kind it is cell-based, murine. Conditions: for Percent Cell Death: 100 μM hydrogen peroxide. As to the method: as §3, §4
Assay [3] relates to SN4741 cells transfected with vector. The description is as above. In kind it is cell-based, murine. Conditions: 100 μM hydrogen peroxide. On the procedure:
as §3, §4

For a further assay, the target named is T1, truncated human FLT3 (Homo sapiens, UniProt P36888).
T1 construct: truncated human FAK, RET, FLT3, JAK2, and LRRK2 (CARNA BIOSCIENCES™); purchased Carna Biosciences
T1 sequence (P36888 564-993 limits assumed): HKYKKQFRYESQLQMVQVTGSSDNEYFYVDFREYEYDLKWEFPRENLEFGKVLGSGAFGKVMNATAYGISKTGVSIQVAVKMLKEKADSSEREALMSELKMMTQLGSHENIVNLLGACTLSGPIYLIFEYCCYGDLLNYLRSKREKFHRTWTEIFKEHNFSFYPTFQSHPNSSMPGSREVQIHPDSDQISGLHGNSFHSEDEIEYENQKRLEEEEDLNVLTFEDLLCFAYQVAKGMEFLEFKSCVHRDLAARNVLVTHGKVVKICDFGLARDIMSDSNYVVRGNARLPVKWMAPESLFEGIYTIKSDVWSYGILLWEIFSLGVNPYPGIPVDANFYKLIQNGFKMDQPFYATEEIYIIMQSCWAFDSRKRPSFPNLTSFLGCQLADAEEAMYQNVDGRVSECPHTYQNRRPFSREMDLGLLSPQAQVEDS
The assay is described as follows: Inhibition of enzymatic kinase activity (LANCE Ulight). In kind it is biochemical. On the procedure:
as §1, §2

The target of another assay is T2, truncated human JAK2 (Homo sapiens, UniProt O60674).
T2 construct: truncated human FAK, RET, FLT3, JAK2, and LRRK2 (CARNA BIOSCIENCES™); purchased Carna Biosciences
The assay is described as above. In kind it is biochemical. On the procedure: as §1, §2

Another assay addresses T3, truncated human RET (Homo sapiens, UniProt P07949).
T3 construct: truncated human FAK, RET, FLT3, JAK2, and LRRK2 (CARNA BIOSCIENCES™); purchased Carna Biosciences
T3 sequence (P07949 658-1114 limits assumed): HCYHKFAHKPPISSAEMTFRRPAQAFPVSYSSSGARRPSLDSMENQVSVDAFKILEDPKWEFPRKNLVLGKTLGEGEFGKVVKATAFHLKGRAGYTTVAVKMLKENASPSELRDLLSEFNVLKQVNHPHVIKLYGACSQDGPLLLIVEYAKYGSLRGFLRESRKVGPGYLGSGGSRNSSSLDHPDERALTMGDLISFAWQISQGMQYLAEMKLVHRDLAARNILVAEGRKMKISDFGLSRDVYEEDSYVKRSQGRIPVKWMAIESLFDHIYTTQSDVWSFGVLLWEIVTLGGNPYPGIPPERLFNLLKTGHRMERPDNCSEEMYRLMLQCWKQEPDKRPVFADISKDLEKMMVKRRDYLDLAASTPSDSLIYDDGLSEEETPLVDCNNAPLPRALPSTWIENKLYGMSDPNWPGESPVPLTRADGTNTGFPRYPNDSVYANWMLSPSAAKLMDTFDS
Described as above. In kind it is biochemical. As to the method:
as §1, §2

The test system of assay [4] is HEL cells expressing human JAK2 V617F. The assay is described as follows: Cell viability assay: JAK2 inhibition. In kind it is cell-based. Conditions: for IC50: Homo sapiens, 72-hour incubation. As to the method: Compounds of the invention were tested for cell viability effect on HEL cells. For cell viability assay, HEL cells expressing human JAK2 V617F were obtained from the American Type Culture Collection (ATCC, Manassas, Va.). This cell line was maintained with an Roswell Park Memorial Institute (RPMI) medium (HyClone™) containing 10 bovine calf serum (BCS; Hyclone™) supplemented iron. The HEL cells were seeded at 2×10^4 cells in 96 well culture plates, and serially diluted compound was then added. After a 72-hour incubation period at 37° C., Cell viability was measured using the ATPLite 1 step assay (Perkin-Elmer™) that is based on the quantification of ATP from viable cells. CellTiter Aqueous assay (Promega™) was also performed in parallel as an orthogonal assay. IC50 values were calculated using nonlinear regression and defined as the concentration needed for a 50 reduction in luminescence or absorbance treated versus untreated control cells (Prism™ Software).

Assay [5] deals with TNF-α release in THP-1 cells, LPS stimulation. The assay is described as follows: SYK independent TNF-α release assay (LPS stimulation). Conditions: Homo sapiens; LPS stimulation, At 1 μM, THP-1; read-out: Inhibition of TNF-α Release (percentage inhibition). In kind it is cell-based, human. On the procedure: For SYK independent TNF-α release assay (i.e., via lipopolysaccharide (LPS)-stimulation), THP-1 cells derived from human monocytic cells were obtained from the American Type Culture Collection (ATCC, Manassas, Va.). This cell line was maintained with an RPMI medium (GIBCO™) containing 10 fetal bovine serum (FBS, GIBCO™) and 0.05 mM 2-mercaptoethanol. The THP-1 cells were seeded at 1×10^5 cells/100 μL/well into 96-well culture plates, and treated with lipopolysaccharide (1 μg/ml), and serially diluted compound was then added. After an 18-hour incubation period at 37° C., supernatants were collected for the determination of the TNF-α level by ELISA, and the remaining cells were subjected to an MTT assay to determine the cytotoxic effects of compound.

T2 sequence (O60674 826-1132 limits assumed): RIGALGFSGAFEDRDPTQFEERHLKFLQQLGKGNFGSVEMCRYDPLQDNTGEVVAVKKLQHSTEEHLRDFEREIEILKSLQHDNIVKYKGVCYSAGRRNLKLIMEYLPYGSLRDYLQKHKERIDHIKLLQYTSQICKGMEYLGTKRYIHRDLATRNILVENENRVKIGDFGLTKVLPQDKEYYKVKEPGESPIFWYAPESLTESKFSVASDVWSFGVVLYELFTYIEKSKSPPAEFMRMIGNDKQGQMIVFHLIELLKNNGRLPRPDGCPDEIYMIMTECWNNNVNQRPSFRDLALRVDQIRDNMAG
truncated human LRRK2, sequence (Q5S007 1879-2138 limits assumed): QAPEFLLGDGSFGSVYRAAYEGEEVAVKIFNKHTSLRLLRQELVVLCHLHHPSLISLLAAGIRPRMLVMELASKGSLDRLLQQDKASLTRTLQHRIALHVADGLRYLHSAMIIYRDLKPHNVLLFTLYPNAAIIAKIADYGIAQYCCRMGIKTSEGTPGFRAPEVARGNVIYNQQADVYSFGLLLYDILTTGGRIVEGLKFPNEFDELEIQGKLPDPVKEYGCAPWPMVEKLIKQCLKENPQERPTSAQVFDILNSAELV

The IC50 is the midpoint of a concentration-inhibition curve. A low value points to greater potency in that assay. On to `O=c1[nH]ccc2nc(N3CCC(O)CC3)nc(Nc3cc(C(F)(F)F)cc(C(F)(F)F)c3)c12` [Compound 102, 4-(3,5-bis(trifluoromethyl)phenylamino)-2-(4-hydroxypiperidin-1-yl)pyrido[4,3-d]pyrimidin-5(6H)-one], for which, on truncated human LRRK2, the half-maximal inhibitory concentration (IC50) is 325 nM. Besides, the “Percent Cell Death” value in assay [1] (0.05 uM) came to 49.9%; in assay [1] (0.5 uM), 55.3%; in [1] (5 uM), 46.5%; in assay [2] (0.05 uM), 54.9%; in [2] (0.5 uM) it was 56.0%; in assay [2] (5 uM), 44.0%. In addition, the “Percent Cell Death” value in assay [3] (0.05 uM) amounted to 50.0%; in assay [3] (0.5 uM), 54.4%; in [3] (5 uM) it was 50.5%. Besides, the “protective effects against LRRK2-associated cell death” value in [1] (LRRK2 wild-type, at 0.05 uM and higher, vs vector, DMSO or H2O2 controls) is “increased protective effects”; in [2] (at 0.05 uM and higher, vs vector, DMSO or H2O2 controls) it was “increased protective effects”.
Turning to `O=c1[nH]ccc2nc(N3CCC(CO)CC3)nc(Nc3ccc(N4CCS(=O)(=O)CC4)cc3)c12` [Compound 137], the IC50 against truncated human FLT3 was found to be 12.4 nM; at truncated human JAK2, 1.6 nM; against truncated human RET, 5.8 nM; in [4] it was 89 nM. Also, in assay [4], the “inhibition level compared with Sorafenib” value is reported as “inhibition level greater than those exhibited by Sorafenib”.
The term inhibition denotes the change of the read-out against control, counted positive when it falls. For the molecule `C[C@@H]1C[C@H]2[C@@H]3CCC4=CC(=O)C=C[C@]4(C)[C@@]3(F)[C@@H](O)C[C@]2(C)[C@@]1(O)C(=O)CO` [Dexamethasone, reference compound], the inhibition at 1 µM in [5] worked out at 68.4%.
As to `O=c1[nH]ccc2nc(N3CCC(CO)CC3)nc(Nc3ccc(N4CCOCC4)cc3)c12` [Compound 139, 2-(4-(hydroxymethyl)piperidin-1-yl)-4-(4-morpholinophenylamino)pyrido[4,3-d]pyrimidin-5(6H)-one], the half-maximal inhibitory concentration (IC50) at truncated human FLT3 amounted to 9.1 nM; on truncated human JAK2, 1.6 nM; against truncated human RET it was 4.1 nM; in [4], 152 nM. In addition, the “inhibition level compared with Sorafenib” value in assay [4] is recorded as “inhibition level greater than those exhibited by Sorafenib”. Besides, the “times higher inhibition in IC50 than Sorafenib” value in assay [4] is reported as “about 10 time”.
Take `CNC(=O)c1cc(Oc2ccc(NC(=O)Nc3ccc(Cl)c(C(F)(F)F)c3)cc2)ccn1` [Sorafenib, reference compound]: in [4], the IC50 was more than 1000 nM.
